Measured values from ChEMBL document CHEMBL1136018, “Synthesis of bis-spermine dimers that are potent polyamine transport inhibitors” (Bioorg Med Chem Lett, 2002).

Key:
[1] = tested on: MDA-MB-231; assay: Effective concentration of compound with DFMO tested in vitro for ability to inhibit polyamine transport and growth of MDA-MB-231 breast carcinoma cell line; format: functional, cell-based; conditions: Homo sapiens
[2] = Inhibition of SPD uptake by polyamine transporter of MDA-MB-231 breast carcinoma cells; format: cell-based
[3] = tested on: MDA-MB-231; assay: Effective concentration of compound without DFMO tested in vitro for ability to inhibit polyamine transport and growth of MDA-MB-231 breast carcinoma cell line; Cytotoxic; format: functional, cell-based; conditions: Homo sapiens
[4] = tested on: MDA-MB-231; assay: Michaelis-Menten constant of compound was determined at MDA-MB-231 cell line mediated by polyamine transporter; format: cell-based; conditions: Homo sapiens
[5] = tested on: MDA-MB-231; assay: Effective concentration of compound with DFMO tested in vitro for ability to inhibit polyamine transport and growth of MDA-MB-231 breast carcinoma cell line; Cytotoxic; format: functional, cell-based; conditions: Homo sapiens

SMILES | EC50 [1] [µM] | Ki [2] [µM] | EC50 [3] [µM] | Km [4] [µM] | EC50 [5] [µM]
NCCCNCCCCNCCCNC(=O)CC12CC3CC(C1)CC(CC(=O)NCCCNCCCCNCCCN)(C3)C2 | > 300 | 0.06 |  |  | 
NCCCNCCCCNCCCNC(=O)CCCCCCCCC(=O)NCCCNCCCCNCCCN | 9 | 0.08 | 240 |  | 
NCCCNCCCCNCCCNC(=O)CCCCCCC(=O)NCCCNCCCCNCCCN | 3.7 | 0.06 |  |  | 
NCCCNCCCCNCCCNC(=O)CCCCCC(=O)NCCCNCCCCNCCCN | 6 | 0.04 |  |  | 
NCCCNCCCCNCCCN |  |  |  | 2 | 
CCCCCCC(=O)NCCCNCCCCNCCCN |  | 0.28 |  |  | 63
NCCCNCCCCNCCCNS(=O)(=O)c1ccc2cc(S(=O)(=O)NCCCNCCCCNCCCN)ccc2c1 | 230 | 0.06 |  |  | 
NCCCCN |  |  |  | 1.28 | 
NCCCNCCCCNCCCNC(=O)CCCCCCCCCCC(=O)NCCCNCCCCNCCCN | 8 | 0.03 | 53 |  | 
NCCCNCCCCNCCCNC(=O)CCCCCCCC(=O)NCCCNCCCCNCCCN | 3 | 0.07 |  |  | 
NCCCNCCCCNCCCNC(=O)CCCC(=O)NCCCNCCCCNCCCN | 1.6 | 0.06 |  |  | 
CC(=O)NCCCNCCCCNCCCN | > 1000 | 0.18 |  |  | 
NCCCNCCCCNCCCNC(=O)CCC(=O)NCCCNCCCCNCCCN | 2 | 0.03 |  |  | 
NCCCCNCCCN |  |  |  | 0.11 | 
NCCCNCCCCNCCCNC(=O)CCCCC(=O)NCCCNCCCCNCCCN | 2.2 | 0.07 |  |  | 
